Reference: ChEMBL document CHEMBL5143608, “Peptide-based long-acting co-agonists of GLP-1 and cholecystokinin 1 receptors as novel anti-diabesity agents” (Eur J Med Chem, 2022)
Activity calls are given as the source filed them. The calls are words filed in the database; no cut-off is given here.

Experiments:
Mus musculus [1] = assay: Anti-diabesity activity against db/db mouse assessed as reduction in fasting blood glucose level at 25 nmol/kg, sc administered every 2 days for 12 weeks; format: functional, organism-based
Mus musculus [2] = assay: Anti-diabesity activity in DIO C57BL/6 mouse assessed as reduction in body weight at 10 nmol/kg, sc administered every 2 days for 10 days; format: functional; conditions: C57BL/6, 240 h, time 10 day
Mus musculus [3] = assay: Anti-diabesity activity in db/db mouse assessed as decrease in cumulative food intake at 100 nmol/kg, sc administered once daily for 7 days; format: functional, organism-based; conditions: time 7.0 day
[4] = Hepatotoxicity in db/db mouse assessed as alanine aminotransferase level in plasma at 100 nmol/kg, sc administered once daily for 7 days; format: toxicity, organism-based; conditions: in vivo, 168 h, time 7 day
Mus musculus [5] = assay: Anti-diabesity activity against db/db mouse assessed as HbA1c level at 25 nmol/kg, sc administered every 2 days for 3 weeks; format: functional, organism-based; conditions: time 21.0 day
[6] = target: T1, Cholecystokinin receptor type A (Homo sapiens, UniProt P32238); assay: Agonist activity at human CCK1R expressed in HEK293 cells assessed as ERK1/2 phosphorylation incubated for 5 mins by AlphaScreen assay; format: functional, cell-based; conditions: hek293
T1 sequence (P32238 whole entry): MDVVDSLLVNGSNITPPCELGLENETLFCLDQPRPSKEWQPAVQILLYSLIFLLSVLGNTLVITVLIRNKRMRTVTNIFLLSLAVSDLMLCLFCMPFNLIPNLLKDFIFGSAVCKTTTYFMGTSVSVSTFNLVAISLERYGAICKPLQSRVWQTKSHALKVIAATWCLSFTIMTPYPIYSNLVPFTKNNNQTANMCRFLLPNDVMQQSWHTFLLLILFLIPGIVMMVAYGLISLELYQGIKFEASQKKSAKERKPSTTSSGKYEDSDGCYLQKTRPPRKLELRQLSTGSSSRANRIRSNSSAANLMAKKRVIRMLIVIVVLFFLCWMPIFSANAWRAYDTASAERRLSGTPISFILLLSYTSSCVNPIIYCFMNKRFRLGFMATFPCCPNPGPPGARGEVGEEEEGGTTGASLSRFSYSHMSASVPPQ

Mus musculus [7] = assay: Anti-diabesity activity in db/db mouse assessed as improvement in glucose tolerance at 25 nmol/kg, ip pretreated for 15 mins with CCK-1R antagonist, Lorglumide followed by compound administration and 15 mins later treated with oral glucose and measured upto 120 mins by OGTT; format: functional, organism-based; conditions: time 135.0 min
Mus musculus [8] = assay: Anti-diabesity activity against db/db mouse assessed as reduction in HbA1c level at 25 nmol/kg, sc administered every 2 days for 12 weeks; format: functional, organism-based
[9] = Pancreatic insult activity in db/db mouse assessed as increase in lipase level in plasma at 100 nmol/kg, sc administered once daily for 7 days; format: toxicity, organism-based; conditions: in vivo, 168 h, time 7 day
[10] = Hepatotoxicity in DIO C57BL/6 mouse assessed as alanine aminotransferase level in plasma at 100 nmol/kg, sc administered once daily for 7 days; format: toxicity, organism-based; conditions: in vivo, 168 h, time 7 day
Mus musculus [11] = assay: Anti-diabesity activity in DIO C57BL/6 mouse assessed as decrease in fasted blood glucose level at 100 nmol/kg, sc administered once daily for 7 days; format: functional, organism-based; conditions: time 7.0 day
Mus musculus [12] = assay: Anti-diabesity activity against DIO C57BL/6 mouse assessed as decrease in fat mass at 25 nmol/kg, sc administered every 2 days for 3 weeks; format: functional, organism-based; conditions: time 21.0 day
Mus musculus [13] = assay: Anti-diabesity activity in db/db mouse assessed as reduction in body weight at 100 nmol/kg, sc administered once daily for 7 days; format: functional, organism-based; conditions: time 7.0 day
Mus musculus [14] = assay: Anti-diabesity activity against db/db mouse assessed as enhanced islets insulin content at 25 nmol/kg, sc administered every 2 days for 3 weeks by immunohistochemistry staining; format: functional, organism-based; conditions: time 21.0 day
[15] = MRT in Sprague-Dawley rat at 25 nmol/kg, sc by LC-MS/MS analysis; format: ADME, organism-based; conditions: in vivo
[16] = Pancreatic insult activity in DIO C57BL/6 mouse assessed as increase in amylase level in plasma at 100 nmol/kg, sc administered once daily for 7 days; format: toxicity, organism-based; conditions: in vivo, 168 h, time 7 day
Mus musculus [17] = assay: Hypoglycemic activity in db/db mouse assessed as reduction in glucose excursion at 25 nmol/kg, ip administered 30 min before oral glucose administration and measured upto 120 mins by OGTT; format: functional, organism-based
[18] = Renal toxicity in DIO C57BL/6 mouse assessed as creatinine level in serum at 100 nmol/kg, sc administered once daily for 7 days; format: organism-based; conditions: in vivo, 168 h, time 7 day
[19] = Half life in Sprague-Dawley rat at 25 nmol/kg, sc by LC-MS/MS analysis; format: ADME, organism-based; conditions: in vivo
[20] = Cmax in Sprague-Dawley rat at 25 nmol/kg, iv by LC-MS/MS analysis; format: ADME, organism-based; parameters: dose 25 nmol/kg, route iv; conditions: in vivo
Mus musculus [21] = assay: Anti-diabesity activity against db/db mouse assessed as reduction in cumulative food intake at 25 nmol/kg, sc administered every 2 days for 3 weeks; format: functional, organism-based; conditions: time 21.0 day
Mus musculus [22] = assay: Anti-diabesity activity against db/db mouse assessed as reduction in HbA1c level at 25 nmol/kg, sc administered every 2 days for 6 weeks followed by saline treatment for 6 weeks and measured during second 6 weeks; format: functional, organism-based
[23] = Half life in Sprague-Dawley rat at 25 nmol/kg, iv by LC-MS/MS analysis; format: ADME, organism-based; conditions: in vivo
Mus musculus [24] = assay: Anti-diabesity activity in DIO C57BL/6 mouse assessed as reduction in body weight at 25 nmol/kg, sc administered every 2 days for 10 days; format: functional; conditions: C57BL/6, 240 h, time 10 day
Mus musculus [25] = assay: Anti-diabesity activity against db/db mouse assessed as increase in IOD of insulin in pancreas at 25 nmol/kg, sc administered every 2 days for 12 weeks by immunohistochemistry; format: functional, organism-based
BRIN-BD11 = assay: Insulinotropic activity in rat BRIN-BD11 cells assessed as increase in insulin secretion incubated for 20 mins by radioimmunoassay; format: functional, cell-based; conditions: DDE = dose-dependent effect
Mus musculus [26] = assay: Insulinotropic activity in db/db mouse assessed as elevation of plasma insulin level at 25 nmol/kg, ip administered 30 min before oral glucose administration and measured upto 60 mins by ELISA; format: functional, organism-based; conditions: time <= 90.0 min
[27] = Renal toxicity in db/db mouse assessed as blood urea nitrogen level at 100 nmol/kg, sc administered once daily for 7 days; format: organism-based; conditions: in vivo, 168 h, time 7 day
[28] = target: T2, CCK2R (gastrin/cholecystokinin type B receptor) (Homo sapiens, UniProt P32239); assay: Agonist activity at human CCK2R expressed in HEK293 cells assessed as ERK1/2 phosphorylation incubated for 5 mins by AlphaScreen assay; format: functional, cell-based; conditions: human, HEK293 cells expressing human CCK2R
T2 sequence (P32239 whole entry): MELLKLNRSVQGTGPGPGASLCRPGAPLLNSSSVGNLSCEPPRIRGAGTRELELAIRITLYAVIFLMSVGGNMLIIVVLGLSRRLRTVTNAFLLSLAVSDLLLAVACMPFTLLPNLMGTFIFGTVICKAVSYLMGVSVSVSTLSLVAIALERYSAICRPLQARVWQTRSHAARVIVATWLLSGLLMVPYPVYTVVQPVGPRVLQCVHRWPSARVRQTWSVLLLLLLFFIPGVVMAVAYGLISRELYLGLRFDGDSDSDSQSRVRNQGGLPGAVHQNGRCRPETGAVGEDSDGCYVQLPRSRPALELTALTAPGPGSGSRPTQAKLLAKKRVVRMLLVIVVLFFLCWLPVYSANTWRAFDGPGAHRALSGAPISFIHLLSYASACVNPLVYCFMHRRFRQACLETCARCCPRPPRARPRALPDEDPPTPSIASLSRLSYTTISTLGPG

Row | EC50 [6] [nM] | MRT [15] [h] | half-life [19] [h] | Cmax [20] [ng/mL] | SMILES | Activity (Mus musculus [1]) | inhibition in vivo at 0.01 µmol/kg (Mus musculus [2]) [%] | Activity (Mus musculus [3]) | Activity [4] | Activity (Mus musculus [5]) | Activity (Mus musculus [7]) | Activity (Mus musculus [8]) | Activity [9] | Activity [10] | Activity (Mus musculus [11]) | Activity (Mus musculus [12]) | Activity (Mus musculus [13]) | Activity (Mus musculus [14]) | Activity [16] | Activity (Mus musculus [17]) | Activity [18] | also measured
1 | 1.25 | 14.7 | 9.2 | 1680 | CCCC[C@H](NC(=O)[C@H](Cc1ccc(CS(=O)(=O)O)cc1)NC(=O)[C@H](CC(=O)O)NC(=O)COCCOCCNC(=O)COCCOCCNC(=O)[C@H](CCCNC(=N)N)NC(=O)CNC(=O)[C@H](CCCCN)NC(=O)[C@@H](NC(=O)[C@H](CC(C)C)NC(=O)[C@H](Cc1c[nH]c2ccccc12)NC(=O)[C@H](C)NC(=O)[C@@H](NC(=O)[C@H](Cc1ccccc1)NC(=O)[C@H](CCC(=O)O)NC(=O)[C@H](CCCCNC(=O)COCCOCCNC(=O)COCCOCCNC(=O)CC[C@H](NC(=O)CCCCCCCCCCCCCCCCC(=O)O)C(=O)O)NC(=O)[C@H](C)NC(=O)[C@H](C)NC(=O)[C@H](CCC(N)=O)NC(=O)CNC(=O)[C@H](CCC(=O)O)NC(=O)[C@H](CC(C)C)NC(=O)[C@H](Cc1ccc(O)cc1)NC(=O)[C@H](CO)NC(=O)[C@H](CO)NC(=O)[C@@H](NC(=O)[C@H](CC(=O)O)NC(=O)[C@H](CO)NC(=O)[C@@H](NC(=O)[C@H](Cc1ccccc1)NC(=O)[C@@H](NC(=O)CNC(=O)[C@H](CCC(=O)O)NC(=O)[C@H](C)NC(=O)[C@@H](N)Cc1cnc[nH]1)[C@@H](C)O)[C@@H](C)O)C(C)C)[C@@H](C)CC)C(C)C)C(=O)NCC(=O)N[C@@H](Cc1c[nH]c2ccccc12)C(=O)N[C@@H](CCCC)C(=O)N(C)[C@H](CC(=O)O)C(=O)N(C)[C@@H](Cc1ccccc1)C(N)=O | Active | 14.5 | Active | Non-Toxic | Active | Active | Active | Non-Toxic | Non-Toxic | Active | Active | Active | Active | Non-Toxic | Active | Non-Toxic | Activity (Mus musculus [21]): Active; Activity (Mus musculus [22]): Active; half-life [23]: 6.3 h; inhibition in vivo at 0.025 µmol/kg (Mus musculus [24]): 17.9%; Activity (Mus musculus [25]): Active; Activity (BRIN-BD11): Dde; Activity (Mus musculus [26]): Active; Activity [27]: Non-Toxic; EC50 at 5 min [28]: > 100 nM
2 | 0.83 | 25.9 | 16.8 | 1660 | CCCC[C@H](NC(=O)[C@H](Cc1ccc(CS(=O)(=O)O)cc1)NC(=O)[C@H](CC(=O)O)NC(=O)COCCOCCNC(=O)COCCOCCNC(=O)[C@H](CCCCN)NC(=O)CNC(=O)[C@H](CCCCN)NC(=O)[C@@H](NC(=O)[C@H](CC(C)C)NC(=O)[C@H](Cc1c[nH]c2ccccc12)NC(=O)[C@H](CCC(=O)O)NC(=O)[C@@H](NC(=O)[C@H](Cc1ccccc1)NC(=O)[C@H](CCC(=O)O)NC(=O)[C@H](CCCCNC(=O)COCCOCCNC(=O)COCCOCCNC(=O)CC[C@H](NC(=O)CCCCCCCCCCCCCCCCC(=O)O)C(=O)O)NC(=O)[C@H](C)NC(=O)[C@H](C)NC(=O)[C@H](CCC(=O)O)NC(=O)[C@H](CCC(=O)O)NC(=O)[C@H](CCC(=O)O)NC(=O)[C@H](CC(C)C)NC(=O)[C@@H](NC(=O)[C@H](CCC(=O)O)NC(=O)[C@@H](NC(=O)[C@@H](NC(=O)[C@H](CC(=O)O)NC(=O)[C@H](CC(N)=O)NC(=O)[C@@H](NC(=O)[C@H](Cc1ccc(O)cc1)NC(=O)[C@@H](NC(=O)CNC(=O)[C@H](CCC(=O)O)NC(=O)C(C)(C)NC(=O)[C@@H](N)Cc1cnc[nH]1)[C@@H](C)O)[C@@H](C)O)C(C)C)[C@@H](C)O)[C@@H](C)O)[C@@H](C)CC)[C@@H](C)CC)C(=O)NCC(=O)N[C@@H](Cc1c[nH]c2ccccc12)C(=O)N[C@@H](CCCC)C(=O)N(C)[C@H](CC(=O)O)C(=O)N(C)[C@@H](Cc1ccccc1)C(N)=O | Active | 16.2 | Active | Non-Toxic | Active | Active | Active | Non-Toxic | Non-Toxic | Active | Active | Active | Active | Non-Toxic | Active | Non-Toxic | Activity (Mus musculus [21]): Active; Activity (Mus musculus [22]): Active; half-life [23]: 9.1 h; inhibition in vivo at 0.025 µmol/kg (Mus musculus [24]): 21.2%; Activity (Mus musculus [25]): Active; Activity (BRIN-BD11): Dde; Activity (Mus musculus [26]): Active; Activity [27]: Non-Toxic; EC50 at 5 min [28]: > 100 nM
